According to article PMC8748444, “Hypocrates is a genetically encoded fluorescent biosensor for (pseudo)hypohalous acids and their derivatives” (Nature Communications, 2022):
Blank lines part the entries; values can stand above or below the molecule they belong to.

Columns and labels:
[1] = molecular target: T1, Hypocrates (NemR-cpYFP biosensor) (Escherichia coli, UniProt P67430, C21S/C98S/C116S/C149S/C153S, form not given); test: stopped-flow, cpYFP fluorescence (λex […] nm); assay type: binding; details: covalent (oxidation, chlorination); 100 mM sodium phosphate pH 7.4, 25 °C; 0.5 µM protein
T1 construct: cpYFP (from HyPer-2) inserted with SAG/GT linkers into flexible loop of NemR^C106; pQE30; with Green fluorescent protein (circularly permuted yellow variant, cpYFP)

[2] = molecular target: T2, Hypocrates (NemR-cpYFP biosensor) (Escherichia coli, UniProt P67430, C21S/C98S/C116S/C149S/C153S/K175A, form not given); test: fluorescence excitation spectra in E. coli cells expressing the sensor; assay type: cell-based; details: HypocratesKA; 80 µM oxidant; PBS pH 7.4
T2 construct: cpYFP (from HyPer-2) inserted with SAG/GT linkers into flexible loop of NemR^C106; pQE30; with Green fluorescent protein (circularly permuted yellow variant, cpYFP)

[3] = molecular target: T3, Hypocrates (NemR-cpYFP biosensor) (Escherichia coli, UniProt P67430, C21S/C98S/C106S/C116S/C149S/C153S, form not given); test: as above; assay type: cell-based; details: HypocratesCS, key Cys replaced; 80 µM oxidant; PBS pH 7.4
T3 construct: cpYFP (from HyPer-2) inserted with SAG/GT linkers into flexible loop of NemR^C106; pQE30; with Green fluorescent protein (circularly permuted yellow variant, cpYFP)

NemR^C106 [4] = molecular target: T4, NemR^C106 (Escherichia coli, UniProt P67430, C21S/C98S/C116S/C149S/C153S); test: stopped-flow, intrinsic Trp fluorescence; assay type: binding; details: covalent (oxidation); 100 mM sodium phosphate pH 7.4, 25 °C; 1 µM protein
T4 construct: pET-21b(+) in E. coli BL21 (DE3); Ni-Sepharose purified; DTT-reduced before assay; NemR homo-dimer

[5] = molecular target: Hypocrates (NemR-cpYFP biosensor) (E. coli); test: SEC; Superdex 200 Increase 10/300 GL, 100 mM sodium phosphate buffer pH 7.4, 24 °C, 0.75 ml/min; samples incubated with 5 mM DTT or with N-chlorotaurine at 1:20 protein/oxidant ratio for 5 min before injection; absorbance at 415 nm; column calibrated with mass standards
[6] = molecular target: T1, Hypocrates (NemR-cpYFP biosensor); test: fluorescence titration, Ex500/Ex417 ratio; assay type: binding; details: covalent (oxidation); 100 mM sodium phosphate pH 7.4, 25 °C; 0.5 µM protein
NemR^C106 [7] = molecular target: T4, NemR^C106; test: intrinsic Trp fluorescence shift; assay type: binding; details: covalent (oxidation); 2 µM protein, 50 µM oxidant; 100 mM sodium phosphate pH 7.4

T4 sequence (P67430 whole entry C21S/C98S/C116S/C149S/C153S): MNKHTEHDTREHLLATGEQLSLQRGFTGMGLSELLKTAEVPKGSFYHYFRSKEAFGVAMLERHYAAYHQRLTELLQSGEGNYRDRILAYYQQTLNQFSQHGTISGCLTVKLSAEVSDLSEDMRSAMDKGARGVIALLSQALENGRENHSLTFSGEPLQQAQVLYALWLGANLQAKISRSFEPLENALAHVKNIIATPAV
T1 sequence (P67430 whole entry C21S/C98S/C116S/C149S/C153S, form open): as the sequence (P67430 whole entry C21S/C98S/C116S/C149S/C153S) above
T2 sequence (P67430 whole entry C21S/C98S/C116S/C149S/C153S/K175A, form open): as the sequence (P67430 whole entry C21S/C98S/C116S/C149S/C153S) above, with K175A counted along it
T3 sequence (P67430 whole entry C21S/C98S/C106S/C116S/C149S/C153S, form open): as the sequence (P67430 whole entry C21S/C98S/C116S/C149S/C153S) above, with C106S counted along it

- second-order rate constant (kon) [1]: (1.4 ± 0.056) × 10^6 M^−1s^−1
- second-order rate constant (NemR^C106 [4]): ~ 3.0 × 10^5 M^−1s^−1
Molecule: OCl [NaOCl]
- fluorescence excitation spectra in E. coli cells expressing the sensor [2]: we found that HypocratesKA is still highly sensitive to NaOCl (Fig. 1i)
- no response [3]: E. coli cells expressing HypocratesCS did not respond anymore to the addition of NaOCl

- stoichiometry N [5]: 2
Molecule: Hypocrates (NemR-cpYFP biosensor)

- sensitivity (slope of initial linear part) [6]: ~ 1.11 µM^−1
Molecule: N#CSO [HOSCN]

Molecule: OBr [NaOBr]
- intrinsic Trp fluorescence shift (NemR^C106 [7]): The oxidants NaOCl, NCT, and NaOBr caused Trp-fluorescence shifts
